Measured values as given in US9895314B2, “Delayed release pharmaceutical formulation containing porous carrier particles for colon targeting” (Tillotts Pharma AG, priority 2014, dated 2018).

Assay: Accelerated stability study, compatibility of MBZ and FCC (HPLC-UV)
Format: physicochemical
Details: drug loaded FCC with 20 and 50% drug content, 25° C., 40° C. and 60° C., 25 days
Procedure: The compatibility of MBZ and FCC was investigated by an accelerated stability study. Drug loaded FCC particles with 20 and 50% drug content were stored at 25° C., 40° C. and 60° C. over a period of 25 days. On several days the MBZ content was analyzed by HPLC-UV.

degradation products from hydrolysis (metronidazole, benzoic acid) detected: not any degradation products
SMILES: Cc1ncc([N+](=O)[O-])n1CCOC(=O)c1ccccc1 [MBZ, metronidazole benzoate]
